Experimental data as given in patent publication US20230373985A1 (Origenis Gmbh, priority 2020, published 2023).

Tests used:
[1] = biological target: T1, G2019S human LRRK2, catalytic site (Homo sapiens, UniProt Q5S007, G2019S); test: TR-FRET LanthaScreen Eu Kinase Binding Assay, LRRK2 G2019S; conditions: LRRK2(G2019); one range stated for wt and G2019; read-out: IC50, Activity Toward LRRK2(G2019)
T1 construct: G2019S human LRRK2, catalytic site; purchased ThermoFisher
Method: (§1) The basic protocol for TR-FRET LanthaScreen Eu Kinase Binding Assay inhibitor studies were performed as follows. LanthaScreen Kinase Binding Assays (ThermoFisher/USA) to evaluate inhibitors were performed by addition of 5 μL of test compound in corresponding DMSO dilutions/5 μl of kinase/antibody mixture, 5 μL of tracer into 384 well small volume plates. After incubation for 1 hour at room temperature, plates were read. Data analysis of emission ratios was according LanthaScreen Eu Kinase Binding Assay protocol.
(§2) Kinase and assay components were adjusted to final concentrations according to kit protocol. For LRRK2: 5 nM wt human LRRK2, catalytic site, or G2019S human LRRK2, catalytic site (ThermoFisher/USA), 2 nM Eu-Anti-GST Antibody, 10 nM Kinase Tracer 236 in 1× Kinase Buffer A. For NUAK1: 8 nM wt human NUAK1, full length (ThermoFisher/USA), 2 nM Eu-Anti-His Antibody, 5 nM Kinase Tracer 236 in 1× Kinase Buffer A.

[2] = biological target: T2, wt human TYK2, catalytic site (Homo sapiens, UniProt P29597); test: HTRF KinEASE assay, TYK2; assay type: biochemical; conditions: 1 μM ATP; read-out: IC50, Activity Toward TYK2
T2 construct: wt human TYK2, catalytic site; purchased SignalChem
T2 sequence (P29597 897-1176 limits assumed): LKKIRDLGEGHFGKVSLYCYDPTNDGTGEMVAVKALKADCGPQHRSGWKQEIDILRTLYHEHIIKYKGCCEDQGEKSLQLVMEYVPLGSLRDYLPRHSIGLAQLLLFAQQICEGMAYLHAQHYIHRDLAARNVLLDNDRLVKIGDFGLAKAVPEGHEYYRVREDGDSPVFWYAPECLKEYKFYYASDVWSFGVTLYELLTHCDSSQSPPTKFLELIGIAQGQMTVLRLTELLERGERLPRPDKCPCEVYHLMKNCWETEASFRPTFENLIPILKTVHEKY
Procedure, shortened: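 HTRF KinEASE-TK readout with 1 μM biotinylated TK substrate in 1× kinase buffer, ≥30 min at room temperature, then antibody/streptavidin-XL665 detection for 60 min. TYK2 at 2 nM with 1 μM ATP; JAK2 at 1 nM with 100 μM ATP. Analysis uses emission ratios.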

[3] = biological target: T3, wt human LRRK2, catalytic site (Homo sapiens, UniProt Q5S007); test: TR-FRET LanthaScreen Eu Kinase Binding Assay, LRRK2 wt; conditions: one range stated for wt and G2019, read-out: IC50, Activity Toward LRRK2(Wt)
T3 construct: 5 nM wt human LRRK2, catalytic site; purchased ThermoFisher
T3 sequence (Q5S007 970-2527 limits assumed): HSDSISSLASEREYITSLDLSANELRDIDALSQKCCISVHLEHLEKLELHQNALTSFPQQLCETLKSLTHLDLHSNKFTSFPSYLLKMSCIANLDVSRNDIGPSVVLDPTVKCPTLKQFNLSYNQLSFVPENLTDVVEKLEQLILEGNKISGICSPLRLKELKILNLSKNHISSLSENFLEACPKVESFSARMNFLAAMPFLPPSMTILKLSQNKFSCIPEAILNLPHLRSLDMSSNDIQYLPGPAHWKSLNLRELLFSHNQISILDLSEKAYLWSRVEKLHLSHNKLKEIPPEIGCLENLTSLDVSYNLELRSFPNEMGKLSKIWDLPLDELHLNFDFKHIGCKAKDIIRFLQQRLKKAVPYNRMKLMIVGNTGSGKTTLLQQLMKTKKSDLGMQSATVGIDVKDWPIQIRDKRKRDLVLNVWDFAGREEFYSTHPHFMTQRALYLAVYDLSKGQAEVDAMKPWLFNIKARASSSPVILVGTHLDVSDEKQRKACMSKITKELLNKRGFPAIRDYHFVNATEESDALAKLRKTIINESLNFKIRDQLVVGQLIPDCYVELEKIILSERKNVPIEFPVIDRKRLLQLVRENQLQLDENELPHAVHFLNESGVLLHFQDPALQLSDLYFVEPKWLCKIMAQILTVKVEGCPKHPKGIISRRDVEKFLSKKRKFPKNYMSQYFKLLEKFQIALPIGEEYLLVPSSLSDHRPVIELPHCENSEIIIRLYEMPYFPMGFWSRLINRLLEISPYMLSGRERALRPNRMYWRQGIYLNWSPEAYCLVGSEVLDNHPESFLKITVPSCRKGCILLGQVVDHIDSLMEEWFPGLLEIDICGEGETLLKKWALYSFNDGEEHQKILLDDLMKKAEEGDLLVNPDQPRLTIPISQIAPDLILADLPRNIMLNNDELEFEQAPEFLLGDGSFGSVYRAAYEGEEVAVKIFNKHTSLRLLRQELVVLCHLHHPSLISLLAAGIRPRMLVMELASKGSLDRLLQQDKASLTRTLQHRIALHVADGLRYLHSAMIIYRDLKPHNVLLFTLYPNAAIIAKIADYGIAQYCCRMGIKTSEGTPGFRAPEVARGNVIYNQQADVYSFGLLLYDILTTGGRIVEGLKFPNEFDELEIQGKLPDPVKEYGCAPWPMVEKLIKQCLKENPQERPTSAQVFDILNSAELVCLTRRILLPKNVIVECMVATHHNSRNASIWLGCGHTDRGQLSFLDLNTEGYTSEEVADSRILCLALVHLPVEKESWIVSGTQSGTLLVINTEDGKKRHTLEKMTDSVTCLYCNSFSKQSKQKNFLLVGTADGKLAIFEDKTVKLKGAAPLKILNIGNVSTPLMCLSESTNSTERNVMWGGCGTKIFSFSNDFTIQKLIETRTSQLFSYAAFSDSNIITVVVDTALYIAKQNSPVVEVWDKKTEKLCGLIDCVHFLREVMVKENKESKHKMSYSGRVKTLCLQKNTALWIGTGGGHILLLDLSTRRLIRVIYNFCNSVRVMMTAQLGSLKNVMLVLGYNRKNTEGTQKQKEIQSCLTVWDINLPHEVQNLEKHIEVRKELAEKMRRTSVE
Method: as §1, §2

[4] = biological target: T4, wt human JAK1, catalytic site (Homo sapiens, UniProt P23458); test: HTRF KinEASE assay, JAK1; assay type: biochemical; conditions: 2.5 μM ATP; read-out: IC50, Activity Toward JAK1
T4 construct: wt human JAK1, catalytic site; purchased ThermoFisher
T4 sequence (P23458 875-1153 limits assumed): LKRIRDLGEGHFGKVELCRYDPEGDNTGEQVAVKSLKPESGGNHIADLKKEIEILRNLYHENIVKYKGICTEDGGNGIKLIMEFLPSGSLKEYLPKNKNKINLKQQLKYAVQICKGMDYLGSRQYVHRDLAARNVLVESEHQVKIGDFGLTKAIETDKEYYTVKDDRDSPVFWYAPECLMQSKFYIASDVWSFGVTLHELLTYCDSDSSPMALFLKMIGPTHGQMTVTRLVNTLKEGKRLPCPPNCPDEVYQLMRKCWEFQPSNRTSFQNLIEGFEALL
Procedure, shortened: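 Two-step HTRF KinEASE assay: compound, kinase/biotinylated TK substrate and ATP were incubated at least 30 min at room temperature. Antibody plus streptavidin-XL665 was then added and plates were read after 60 min. Inhibition was derived from emission ratios according to the kit protocol.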

T1 sequence (Q5S007 970-2527 G2019S limits assumed): as the sequence (Q5S007 970-2527 limits assumed) above, with G1050S counted along it

Compound	IC50 [1] [µM]	IC50 [2] [µM]	IC50 [3] [µM]	IC50 [4] [µM]
CCc1cncnc1-c1ccc(Nc2cn(-c3c(Cl)cccc3Cl)nc2C(N)=O)cc1 [compound 52, 1-(2,6-dichlorophenyl)-4-((4-(5-ethylpyrimidin-4-yl)phenyl)amino)-1H-pyrazole-3-carboxamide]	0.1 to 1	0.01 to 0.1	0.1 to 1	0.1 to 1
Cc1ncn(C)c1-c1ccc(Nc2cn(-c3c(Cl)cccc3Cl)nc2C(N)=O)cc1 [compound 53, 1-(2,6-dichlorophenyl)-4-((4-(1,4-dimethyl-1H-imidazol-5-yl)phenyl)amino)-1H-pyrazole-3-carboxamide]	0.1 to 1	0.1 to 1	0.1 to 1	0.01 to 0.1
N#Cc1cccnc1-c1ccc(Nc2cn(-c3c(Cl)cccc3Cl)nc2C(N)=O)cc1 [compound 59, 4-((4-(3-cyanopyridin-2-yl)phenyl)amino)-1-(2,6-dichlorophenyl)-1H-pyrazole-3-carboxamide]	0.1 to 1	0.1 to 1	0.1 to 1	0.01 to 0.1
CP(C)(=O)c1ccc(Nc2cn(-c3c(F)cccc3F)nc2C(N)=O)cc1 [compound 64, 1-(2,6-difluorophenyl)-4-((4-(dimethylphosphoryl)phenyl)amino)-1H-pyrazole-3-carboxamide]	0.1 to 1	0.1 to 1	0.1 to 1	0.1 to 1
NC(=O)c1nn(-c2c(Cl)cccc2Cl)cc1Nc1ccc(-n2cc3c(n2)CCOC3)cc1 [compound 71, 1-(2,6-dichlorophenyl)-4-((4-(6,7-dihydropyrano[4,3-c]pyrazol-2(4H)-yl)phenyl)amino)-1H-pyrazole-3-carboxamide]	0.1 to 1	0.1 to 1	0.1 to 1	0.1 to 1
Cc1ccnn1-c1ccc(Nc2cn(-c3c(Cl)cccc3Cl)nc2C(N)=O)cc1 [compound 80, 1-(2,6-dichlorophenyl)-4-((4-(5-methyl-1H-pyrazol-1-yl)phenyl)amino)-1H-pyrazole-3-carboxamide]	0.1 to 1	0.01 to 0.1	0.1 to 1	0.01 to 0.1
NC(=O)c1nn(-c2c(Cl)cccc2Cl)cc1Nc1ccc(C(=O)N2CCN(CC(F)F)CC2)cc1 [compound 83, 1-(2,6-dichlorophenyl)-4-((4-(4-(2,2-difluoroethyl)piperazine-1-carbonyl)phenyl)amino)-1H-pyrazole-3-carboxamide]	0.1 to 1	< 0.01	0.1 to 1	0.1 to 1
NC(=O)c1nn(-c2c(Cl)cccc2Cl)cc1Nc1ccc(C(=O)N2CCN(C3CC3)CC2)cc1 [compound 84, 4-((4-(4-cyclopropylpiperazine-1-carbonyl)phenyl)amino)-1-(2,6-dichlorophenyl)-1H-pyrazole-3-carboxamide]	0.1 to 1	< 0.01	0.1 to 1	0.01 to 0.1
CN1CCC(NS(=O)(=O)c2ccc(Nc3cn(-c4c(Cl)cccc4Cl)nc3C(N)=O)cc2)CC1 [compound 89, 1-(2,6-dichlorophenyl)-4-((4-(N-(1-methylpiperidin-4-yl)sulfamoyl)phenyl)amino)-1H-pyrazole-3-carboxamide]	0.1 to 1	< 0.01	0.1 to 1	0.1 to 1
Cn1nc(C(F)(F)F)nc1-c1ccc(Nc2cn(-c3c(F)cccc3Cl)nc2C(N)=O)cc1 [compound 231, 1-(2-chloro-6-fluorophenyl)-4-((4-(1-methyl-3-(trifluoromethyl)-1H-1,2,4-triazol-5-yl)phenyl)amino)-1H-pyrazole-3-carboxamide]	0.1 to 1	< 0.01	0.1 to 1	< 0.01
Cc1ccnn1-c1ccc(Nc2cn(-c3c(F)cccc3Cl)nc2C(N)=O)cc1 [compound 233, 1-(2-chloro-6-fluorophenyl)-4-((4-(5-methyl-1H-pyrazol-1-yl)phenyl)amino)-1H-pyrazole-3-carboxamide]	0.1 to 1	0.01 to 0.1	0.1 to 1	0.01 to 0.1
NC(=O)c1nn(-c2c(Cl)cccc2Cl)cc1Nc1ccc(C(=O)N2CCC(F)C2)cc1 (stereo not shown) [compound 246, 1-(2,6-dichlorophenyl)-4-((4-(3-fluoropyrrolidine-1-carbonyl)phenyl)amino)-1H-pyrazole-3-carboxamide]	0.1 to 1	0.01 to 0.1	0.1 to 1	0.01 to 0.1
CCc1nnnn1-c1ccc(Nc2cn(-c3c(Cl)cccc3Cl)nc2C(N)=O)cc1 [compound 259, 1-(2,6-dichlorophenyl)-4-((4-(5-ethyl-1H-tetrazol-1-yl)phenyl)amino)-1H-pyrazole-3-carboxamide]	0.1 to 1	< 0.01	0.1 to 1	0.01 to 0.1
Cc1cnccc1-c1ccc(Nc2cn(-c3c(Cl)cccc3Cl)nc2C(N)=O)cc1 [compound 260, 1-(2,6-dichlorophenyl)-4-((4-(3-methylpyridin-4-yl)phenyl)amino)-1H-pyrazole-3-carboxamide]	0.1 to 1	0.1 to 1	0.1 to 1	0.01 to 0.1

Next, values leading:

IC50 [1] [µM]	IC50 [2] [µM]	IC50 [3] [µM]	IC50 [4] [µM]	Compound
0.1 to 1	0.01 to 0.1	0.1 to 1	0.01 to 0.1	NC(=O)c1nn(-c2c(Cl)cccc2Cl)cc1Nc1ccc(-c2cccnn2)cc1 [compound 49, 1-(2,6-dichlorophenyl)-4-((4-(pyridazin-3-yl)phenyl)amino)-1H-pyrazole-3-carboxamide]
0.1 to 1	0.01 to 0.1	0.1 to 1	0.1 to 1	CN1CCC(N(C)C(=O)c2ccc(Nc3cn(-c4c(Cl)cccc4Cl)nc3C(N)=O)cc2)CC1 [compound 50, 1-(2,6-dichlorophenyl)-4-((4-(methyl(1-methylpiperidin-4-yl)carbamoyl)phenyl)amino)-1H-pyrazole-3-carboxamide]
0.1 to 1	0.01 to 0.1	0.1 to 1	0.01 to 0.1	Cc1cncnc1-c1ccc(Nc2cn(-c3c(Cl)cccc3Cl)nc2C(N)=O)cc1 [compound 51, 1-(2,6-dichlorophenyl)-4-((4-(5-methylpyrimidin-4-yl)phenyl)amino)-1H-pyrazole-3-carboxamide]
0.1 to 1	0.01 to 0.1	0.1 to 1	0.01 to 0.1	N#Cc1ccnnc1-c1ccc(Nc2cn(-c3c(Cl)cccc3Cl)nc2C(N)=O)cc1 [compound 60, 4-((4-(4-cyanopyridazin-3-yl)phenyl)amino)-1-(2,6-dichlorophenyl)-1H-pyrazole-3-carboxamide]
0.01 to 0.1	0.01 to 0.1	0.01 to 0.1	0.1 to 1	NC(=O)c1nn(-c2c(Cl)cccc2Cl)cc1Nc1ccc(-c2nnc3n2CCCCC3)cc1 [compound 63, 1-(2,6-dichlorophenyl)-4-((4-(6,7,8,9-tetrahydro-5H-[1,2,4]triazolo[4,3-a]azepin-3-yl)phenyl)amino)-1H-pyrazole-3-carboxamide]
0.1 to 1	0.01 to 0.1	0.1 to 1	0.1 to 1	NC(=O)c1nn(-c2c(Cl)cccc2Cl)cc1Nc1ccc(-n2ncc3c2CCOC3)cc1 [compound 70, 1-(2,6-dichlorophenyl)-4-((4-(6,7-dihydropyrano[4,3-c]pyrazol-1(4H)-yl)phenyl)amino)-1H-pyrazole-3-carboxamide]
0.1 to 1	< 0.01	0.1 to 1	0.01 to 0.1	CN1CCN(S(=O)(=O)c2ccc(Nc3cn(-c4c(Cl)cccc4Cl)nc3C(N)=O)cc2)CC1 [compound 85, 1-(2,6-dichlorophenyl)-4-((4-((4-methylpiperazin-1-yl)sulfonyl)phenyl)amino)-1H-pyrazole-3-carboxamide]
0.1 to 1	< 0.01	0.1 to 1	0.01 to 0.1	NC(=O)c1nn(-c2c(Cl)cccc2Cl)cc1Nc1ccc(C(=O)N2CCC(F)(F)C2)cc1 [compound 247, 1-(2,6-dichlorophenyl)-4-((4-(3,3-difluoropyrrolidine-1-carbonyl)phenyl)amino)-1H-pyrazole-3-carboxamide]
